In patent publication US20070185161A1, “Bicyclic substituted indole-derivative steroid hormone nuclear receptor modulators” (priority 2004, published 2007):

target: T1, glucocorticoid receptor (A549 human lung epithelial cell extract) (Homo sapiens, UniProt P04150); experiment: Glucocorticoid Receptor Binding Assay (Method 1); conditions: [3H]-dexamethasone, racemic mixture unless otherwise indicated, read-out: GR Ki (nM) Method 1
T1 construct: host or cells: A549 human lung epithelial cells
T1 sequence (P04150 1-777): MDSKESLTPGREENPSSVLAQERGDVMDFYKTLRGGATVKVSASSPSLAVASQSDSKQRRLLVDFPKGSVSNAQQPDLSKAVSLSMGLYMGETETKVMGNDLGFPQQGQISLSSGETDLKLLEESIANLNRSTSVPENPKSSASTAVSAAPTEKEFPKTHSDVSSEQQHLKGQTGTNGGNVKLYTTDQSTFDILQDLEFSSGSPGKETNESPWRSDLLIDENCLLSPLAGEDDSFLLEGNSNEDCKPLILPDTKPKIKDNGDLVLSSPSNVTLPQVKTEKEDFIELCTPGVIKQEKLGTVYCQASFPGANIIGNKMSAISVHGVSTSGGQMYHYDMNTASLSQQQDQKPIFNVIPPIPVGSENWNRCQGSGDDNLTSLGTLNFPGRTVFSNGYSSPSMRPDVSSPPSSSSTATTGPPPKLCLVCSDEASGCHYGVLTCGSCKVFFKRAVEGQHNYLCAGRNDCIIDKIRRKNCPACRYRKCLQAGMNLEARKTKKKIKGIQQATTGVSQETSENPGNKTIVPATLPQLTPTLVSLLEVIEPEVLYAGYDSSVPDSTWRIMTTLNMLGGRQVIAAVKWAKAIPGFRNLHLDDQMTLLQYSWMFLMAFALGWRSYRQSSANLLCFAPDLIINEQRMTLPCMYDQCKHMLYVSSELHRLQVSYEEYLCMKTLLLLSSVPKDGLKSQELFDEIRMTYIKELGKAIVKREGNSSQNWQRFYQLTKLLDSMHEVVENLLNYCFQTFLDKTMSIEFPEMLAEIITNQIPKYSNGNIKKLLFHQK
Description: A549 human lung epithelial cells (ATCC) are grown at a scale where gram quantity cell pellets are obtained. Harvested cell pellets are washed twice in cold phosphate buffered saline, centrifuged, and resuspended in cold assay binding buffer. The assay binding buffer consists of 10% glycerol, 50 mM Tris-HCl (pH7.2), 75 mM sodium chloride, 1.5 mM magnesium chloride, 1.5 mM EDTA, and 10 mM sodium molybdate. Cell suspensions were lysed via sonication, centrifuged, and the “extract” supernatant is snap frozen and stored at −80 C until needed.
GR binding assays are performed in a final volume of 140 ul containing 50-200 ug of A549 cell extract and 1.86 nM [^3H]-dexamethasone (Amersham) plus varying concentrations of test compound or vehicle. Briefly, assays are prepared at RT in 96-well Fisher 3356 plates, each well containing 100 ul of A549 cell extract, 20 ul of [^3H]-dexamethasone, and 20 ul of test compound/vehicle. Incubations are carried out at 4 degrees Celsius for 16 hours. After incubation, 70 ul of 3× dextran-coated charcoal solution is added to each reaction, mixed, and incubated for 8 minutes at RT. 3×-dextran-coated charcoal solution consists of 250 ml assay binding buffer, 3.75 g Norit A charcoal (Sigma), and 1.25 g dextran T-70 (Amersham). Charcoal/unbound radioligand complexes are removed by centrifugation of the plate and 140 ul of supernatant from each well is transferred to another 96 well Optiplate (Packard Instruments). 200 ul of Microscint-20 scinillant (Packard Instruments) is added to each well and amount of receptor bound radioligand is determined using Packard Instruments TopCount instrument.
IC50 values, defined as the concentration of test compound required to decrease [^3H]-dexamethasone binding by 50%, are then determined. Ki values for each respective test compound can then be calculated by application of the Cheng-Prusoff equation as described in Cheng et al., Relationship Between The Inhibition Constant (Ki) and The Concentration of Inhibitor Which Causes 50% Inhibition (IC50) of an Enzymatic Reaction, Biochem. Pharmacol., 22: 3099-31088; (1973).

| SMILES | Ki [nM] |
| --- | --- |
| CC1(c2c[nH]c3c(NS(C)(=O)=O)cccc23)CCc2ccccc21 (stereo not drawn) [Example 20, N-[3-(1-Methyl-indan-1-yl)-1H-indol-7-yl]-methanesulfonamide] | ≤ 500 |
| CC1(c2c[nH]c3c(NS(C)(=O)=O)cccc23)CCc2cc(-n3cccn3)ccc21 (stereo not drawn) [Example 24, N-[3-(1-Methyl-5-pyrazol-1-yl-indan-1-yl)-1H-indol-7-yl]-methanesulfonamide] | ≤ 500 |
| CS(=O)(=O)Nc1cccc2c(C3CCCc4ccccc43)c[nH]c12 (stereo not drawn) [Example 25, N-[3-(1,2,3,4-Tetrahydro-naphthalen-1-yl)-1H-indol-7-yl]-methanesulfonamide] | ≤ 500 |
| CC1(c2c[nH]c3c(NS(C)(=O)=O)cccc23)CCCc2ccccc21 (stereo not drawn) [Example 26, N-[3-(1-Methyl-1,2,3,4-tetrahydro-naphthalen-1-yl)-1H-indol-7-yl]-methanesulfonamide] | ≤ 500 |
| CCC1(c2c[nH]c3c(NS(C)(=O)=O)cccc23)CCCc2ccccc21 (stereo not drawn) [Example 27, N-[3-(1-Ethyl-1,2,3,4-tetrahydro-naphthalen-1-yl)-1H-indol-7-yl]-methanesulfonamide] | ≤ 500 |
| CC1(c2c[nH]c3c(NS(C)(=O)=O)cccc23)CCOc2ccccc21 (stereo not drawn) [Example 32, N-[3-(4-Methyl-chroman-4-yl)-1H-indol-7-yl]-methanesulfonamide] | ≤ 500 |
| CC1(c2c[nH]c3c(NS(C)(=O)=O)cccc23)CCOc2ccc(F)cc21 (stereo not drawn) [Example 33, N-[3-(6-Fluoro-4-methyl-chroman-4-yl)-1H-indol-7-yl]-methanesulfonamide] | ≤ 500 |
| CC1(c2c[nH]c3c(NS(C)(=O)=O)cccc23)CCSc2ccccc21 (stereo not drawn) [Example 37, N-[3-(4-Methyl-thiochroman-4-yl)-1-indol-7-yl]-methanesulfonamide] | ≤ 500 |
| CC1(c2c[nH]c3c(NS(C)(=O)=O)cccc23)CCCCc2ccccc21 (stereo not drawn) [Example 38, N-[3-(5-Methyl-6,7,8,9-tetrahydro-5H-benzocyclohepten-5-yl)-1H-indol-7-yl]-methanesulfonamide] | ≤ 500 |
